# Measured values from patent US20210000904A1, “NOVEL USE OF MAYDIS STIGMA EXTRACT IN PROPHYLAXIS AND THERAPY OF SLEEP DISORDER” (KONKUK UNIVERSITY GLOBAL INDUSTRY-ACADEMIC COLLABORATION …, priority 2018, published 2021).
# System: ICR mice
# Assay: Caffeine sleep deprivation model with pentobarbital-induced sleep
# Format: in vivo, mouse
# Conditions: caffeine 10 mg/kg i.p., pentobarbital 42 mg/kg after 30 minutes
compound,measurement,value
Cn1c(=O)c2c(ncn2C)n(C)c1=O [caffeine],sleep duration decrease compared to negative control group,"1,000 seconds"
same,sleep onset time increase compared to negative control group,about 50 seconds
